# From patent publication US8158794B2, “Hydroxyalkyl substituted imidazoquinoline compounds and methods” (3M Innovative Properties Company, priority 2005, dated 2012)
# Like-named read-outs stand apart in the source and are kept apart here.
# Columns and labels:
# interferon (α) (IFN-α) = experiment: Cytokine induction in human cells: IFN-α secreted by PBMC (ELISA); type: cell-based; conditions: median if more than one experiment; for minimal effective concentration: lowest tested concentration inducing response over 20 pg/mL, read-out: Minimum Effective Concentration (μM) IFN; for Maximal Response (pg/mL) IFN: background-subtracted, reference-adjusted
# Source text: (§1) An in vitro human blood cell system is used to assess cytokine induction. Activity is based on the measurement of interferon (α) and tumor necrosis factor (α) (IFN-α and TNF-α, respectively) secreted into culture media as described by Testerman et. al. in “Cytokine Induction by the Immunomodulators Imiquimod and S-27609”, Journal of Leukocyte Biology, 58, 365-372 (September, 1995).
# (§2) Whole blood from healthy human donors is collected by venipuncture into vacutainer tubes or syringes containing EDTA. Peripheral blood mononuclear cells (PBMC) are separated from whole blood by density gradient centrifugation using HISTOPAQUE-1077 (Sigma, St. Louis, Mo.) or Ficoll-Paque Plus (Amersham Biosciences Piscataway, N.J.). Blood is diluted 1:1 with Dulbecco's Phosphate Buffered Saline (DPBS) or Hank's Balanced Salts Solution (HBSS). Alternately, whole blood is placed in Accuspin (Sigma) or LeucoSep (Greiner Bio-One, Inc., Longwood, Fla.) centrifuge frit tubes containing density gradient medium. The PBMC layer is collected and washed twice with DPBS or HBSS and re-suspended at 4×10^6 cells/mL in RPMI complete. The PBMC suspension is added to 96 well flat bottom sterile tissue culture plates containing an equal volume of RPMI complete media containing test compound.
# (§3) The compounds are solubilized in dimethyl sulfoxide (DMSO). The DMSO concentration should not exceed a final concentration of 1% for addition to the culture wells. The compounds are generally tested at concentrations ranging from 30-0.014 μM. Controls include cell samples with media only, cell samples with DMSO only (no compound), and cell samples with reference compound.
# (§4) The solution of test compound is added at 60 μM to the first well containing RPMI complete and serial 3 fold dilutions are made in the wells. The PBMC suspension is then added to the wells in an equal volume, bringing the test compound concentrations to the desired range (usually 30-0.014 μM). The final concentration of PBMC suspension is 2×10^6 cells/mL. The plates are covered with sterile plastic lids, mixed gently and then incubated for 18 to 24 hours at 37° C. in a 5% carbon dioxide atmosphere.
# (§5) Following incubation the plates are centrifuged for 10 minutes at 1000 rpm (approximately 200×g) at 4° C. The cell-free culture supernatant is removed and transferred to sterile polypropylene tubes. Samples are maintained at −30 to −70° C. until analysis. The samples are analyzed for IFN-α by ELISA and for TNF-α by IGEN/BioVeris Assay.
# IFN-α concentration is determined with a human multi-subtype colorimetric sandwich ELISA (Catalog Number 41105) from PBL Biomedical Laboratories, Piscataway, N.J. Results are expressed in pg/mL.
# (§6) In total, the data output of the assay consists of concentration values of TNF-α and IFN-α(y-axis) as a function of compound concentration (x-axis).
# Analysis of the data has two steps. First, the greater of the mean DMSO (DMSO control wells) or the experimental background (usually 20 pg/mL for IFN-α and 40 pg/mL for TNF-α) is subtracted from each reading. If any negative values result from background subtraction, the reading is reported as “*”, and is noted as not reliably detectable. In subsequent calculations and statistics, “*”, is treated as a zero. Second, all background subtracted values are multiplied by a single adjustment ratio to decrease experiment to experiment variability. The adjustment ratio is the area of the reference compound in the new experiment divided by the expected area of the reference compound based on the past 61 experiments (unadjusted readings). […] The reference compound used is 2-[4-amino-2-ethoxymethyl-6,7,8,9-tetrahydro-α,α-dimethyl-1H-imidazo[4,5-c]quinolin-1-yl]ethanol hydrate (U.S. Pat. No. 5,352,784; Example 91) and the expected area is the sum of the median dose values from the past 61 experiments.
# The minimum effective concentration is calculated based on the background-subtracted, reference-adjusted results for a given experiment and compound. […]
# [1] = system: tumor necrosis factor (α) (TNF-α); experiment: Cytokine induction in human cells: TNF-α secreted by PBMC (ORIGEN M-Series immunoassay); type: cell-based; parameters: key to Maximal Response (pg/mL) TNF: *: Below experimental background level; conditions: median if more than one experiment; for minimal effective concentration: lowest tested concentration inducing response over 40 pg/mL, read-out: Minimum Effective Concentration (μM) TNF; for Maximal Response (pg/mL) TNF: background-subtracted, reference-adjusted
# Source text: as §1, §2, §3, §4, §5
# The TNF-α concentration is determined by ORIGEN M-Series Immunoassay and read on an IGEN M-8 analyzer from BioVeris Corporation, formerly known as IGEN International, Gaithersburg, Md. The immunoassay uses a human TNF-α capture and detection antibody pair (Catalog Numbers AHC3419 and AHC3712) from Biosource International, Camarillo, Calif. Results are expressed in pg/mL.
# as §6
# Analysis of the data has two steps. First, the greater of the mean DMSO (DMSO control wells) or the experimental background (usually 20 pg/mL for IFN-α and 40 pg/mL for TNF-α) is subtracted from each reading. If any negative values result from background subtraction, the reading is reported as “*”, and is noted as not reliably detectable. In subsequent calculations and statistics, “*”, is treated as a zero. Second, all background subtracted values are multiplied by a single adjustment ratio to decrease experiment to experiment variability. The adjustment ratio is the area of the reference compound in the new experiment divided by the expected area of the reference compound based on the past 61 experiments (unadjusted readings). […]
SMILES,minimal effective concentration (interferon (α) (IFN-α); 18 to 24 hours),"minimal effective concentration (interferon (α) (IFN-α); Table 3, 18 to 24 hours)",minimal effective concentration ([1]; 18 to 24 hours),"minimal effective concentration ([1]; Table 3, 18 to 24 hours)",Maximal Response (pg/mL) IFN (interferon (α) (IFN-α); tested 30-0.014 μM),Maximal Response (pg/mL) TNF ([1]; tested 30-0.014 μM),"Maximal Response (pg/mL) IFN (interferon (α) (IFN-α); Table 3, tested 30-0.014 μM)","Maximal Response (pg/mL) TNF ([1]; Table 3, tested 30-0.014 μM)"
"CCc1nc2c(N)nc3cc(-c4cccnc4)ccc3c2n1CC(C)(C)O [Analog 1, 1-(4-amino-2-ethyl-7-pyridin-3-yl-1H-imidazo[4,5-c]quinolin-1-yl)-2-methylpropan-2-ol, reference compound]",0.12 µM,0.12 µM,0.37 µM,0.37 µM,,,,
"CCCc1nc2c(N)nc3cc(-c4cccnc4)ccc3c2n1CC(C)(C)O [Analog 2, 1-(4-amino-2-propyl-7-pyridin-3-yl-1H-imidazo[4,5-c]quinolin-1-yl)-2-methylpropan-2-ol, reference compound]",0.04 µM,0.04 µM,0.37 µM,0.37 µM,,,,
"CCOCc1nc2c(N)nc3cc(-c4cccnc4)ccc3c2n1CC(C)(C)O [Analog 3, 1-(4-amino-2-ethoxymethyl-7-pyridin-3-yl-1H-imidazo[4,5-c]quinolin-1-yl)-2-methylpropan-2-ol, reference compound]",0.04 µM,0.04 µM,0.12 µM,0.12 µM,,,,
CC(C)(O)Cn1c(CCO)nc2c(N)nc3cc(-c4ccccc4)ccc3c21 [Example 2],0.37 µM,,3.33 µM,,1274 pg/mL,67 pg/mL,,
CC(C)Cn1c(CCO)nc2c(N)nc3cc(-c4cccnc4)ccc3c21 [Example 3],0.37 µM,,3.33 µM,,1180 pg/mL,42 pg/mL,,
CC(C)Cn1c(CCO)nc2c(N)nc3cc(-c4cncc(CO)c4)ccc3c21 [Example 4],0.12 µM,,10 µM,,1891 pg/mL,349 pg/mL,,
CC(C)(O)Cn1c(CO)nc2c(N)nc3cc(-c4cccnc4)ccc3c21 [Example 8],0.37 µM,1.11 µM,10 µM,>30 µM,2886 pg/mL,51 pg/mL,2251 pg/mL,* (Below experimental background level of 40/pg mL)
Cc1cccc(-c2ccc3c(c2)nc(N)c2nc(CO)n(CC(C)(C)O)c23)c1 [Example 9],30 µM,,>30 µM,,87 pg/mL,*,,
Cc1ccc(-c2ccc3c(c2)nc(N)c2nc(CO)n(CC(C)(C)O)c23)cc1 [Example 10],0.37 µM,,0.37 µM,,1681 pg/mL,7423 pg/mL,,
CC(C)(O)Cn1c(CO)nc2c(N)nc3cc(-c4cccc(O)c4)ccc3c21 [Example 13],0.37 µM,,10 µM,,12641 pg/mL,352 pg/mL,,
CC(C)(O)Cn1c(CO)nc2c(N)nc3cc(-c4cncc(CO)c4)ccc3c21 [Example 33],0.37 µM,,> 30 µM,,,*,,
CC(C)C(=O)N1CCC(Cn2c(CO)nc3c(N)nc4cc(-c5cccnc5)ccc4c32)CC1 [Example 35],1.11 µM,,> 30 µM,,,*,,
CCCNC(=O)NCCCCn1c(CO)nc2c(N)nc3cc(-c4cccnc4)ccc3c21 [Example 39],0.37 µM,,30 µM,,,,,
Nc1nc2cc(-c3cccnc3)ccc2c2c1nc(CO)n2CCCCNC(=O)NC1CCCC1 [Example 41],0.04 µM,,10 µM,,,,,
